Experiments:
Type in all cases: functional
MOLT-4 [1] = test: Cytotoxicity against human MOLT4 cells assessed as growth inhibition after 48 hrs by sulforhodamine B assay; settings: MOLT-4, 48 h; for CC50: read-out: LC50 (the source's name)
HOP-62 = test: Cytotoxicity against human HOP62 cells assessed as growth inhibition after 48 hrs by sulforhodamine B assay; settings: HOP-62, 48 h
SF-268 [2] = test: Cytotoxicity against human SF268 cells assessed as growth inhibition after 48 hrs by sulforhodamine B assay; settings: SF-268, 48 h; for CC50: read-out: LC50 (the source's name)
MDA-MB-435 [3] = test: Cytotoxicity against human MDA-MB-435 cells assessed as growth inhibition after 48 hrs by sulforhodamine B assay; settings: MDA-MB-435, 48 h
SK-MEL-28 [4] = test: Cytotoxicity against human SK-MEL-28 cells assessed as growth inhibition after 48 hrs by sulforhodamine B assay; settings: SK-MEL-28, 48 h
786-0 [5] = test: Cytotoxicity against human 786-0 cells assessed as growth inhibition after 48 hrs by sulforhodamine B assay; settings: 786-0, 48 h
A498 [6] = test: Cytotoxicity against human A498 cells assessed as growth inhibition after 48 hrs by sulforhodamine B assay; settings: A498, 48 h
DU-145 = test: Cytotoxicity against human DU145 cells assessed as growth inhibition after 48 hrs by sulforhodamine B assay; settings: DU-145, 48 h
T47D [7] = test: Cytotoxicity against human T47D cells assessed as growth inhibition after 48 hrs by sulforhodamine B assay
A498 [8] = test: Cytotoxicity against human A498 cells assessed as cell growth at 0.01 uM after 48 hrs by sulforhodamine B assay relative to control; settings: A498, 48 h, read-out: Activity
OVCAR-4 = test: Cytotoxicity against human OVCAR4 cells assessed as cell growth at 0.01 uM after 48 hrs by sulforhodamine B assay relative to control; settings: OVCAR-4, 48 h, read-out: Activity
M14 = test: Cytotoxicity against human M14 cells assessed as cell growth at 0.01 uM after 48 hrs by sulforhodamine B assay relative to control; settings: M14, 48 h, read-out: Activity
NCI-H322M = test: Cytotoxicity against human NCI-H322M cells assessed as cell growth at 0.01 uM after 48 hrs by sulforhodamine B assay relative to control; settings: read-out: Activity
MOLT-4 [9] = test: Cytotoxicity against human MOLT4 cells assessed as cell growth at 0.01 uM after 48 hrs by sulforhodamine B assay relative to control; settings: MOLT-4, 48 h, read-out: Activity
MOLT-4 [10] = test: Cytotoxicity against human MOLT4 cells assessed as cell growth at 0.1 uM after 48 hrs by sulforhodamine B assay relative to control; settings: MOLT-4, 48 h, read-out: Activity
UACC-257 = test: Cytotoxicity against human UACC257 cells assessed as cell growth at 0.1 uM after 48 hrs by sulforhodamine B assay relative to control; settings: UACC-257, 48 h, read-out: Activity
OVCAR-5 [11] = test: Cytotoxicity against human OVCAR5 cells assessed as cell growth at 0.1 uM after 48 hrs by sulforhodamine B assay relative to control; settings: OVCAR-5, 48 h, read-out: Activity
786-0 [12] = test: Cytotoxicity against human 786-0 cells assessed as cell growth at 0.1 uM after 48 hrs by sulforhodamine B assay relative to control; settings: 786-0, 48 h, read-out: Activity
RXF 393 = test: Cytotoxicity against human RXF393 cells assessed as cell growth at 0.1 uM after 48 hrs by sulforhodamine B assay relative to control; settings: RXF 393, 48 h, read-out: Activity
BT-549 = test: Cytotoxicity against human BT549 cells assessed as cell growth at 0.1 uM after 48 hrs by sulforhodamine B assay relative to control; settings: BT-549, 48 h, read-out: Activity
T47D [13] = test: Cytotoxicity against human T47D cells assessed as cell growth at 0.1 uM after 48 hrs by sulforhodamine B assay relative to control; settings: read-out: Activity
MDA-MB-468 = test: Cytotoxicity against human MDA-MB-468 cells assessed as cell growth at 0.1 uM after 48 hrs by sulforhodamine B assay relative to control; settings: MDA-MB-468, 48 h, read-out: Activity
SF-268 [14] = test: Cytotoxicity against human SF268 cells assessed as cell growth at 1 uM after 48 hrs by sulforhodamine B assay relative to control; settings: SF-268, 48 h, read-out: Activity
Malme-3M = test: Cytotoxicity against human MALME-3M cells assessed as cell growth at 1 uM after 48 hrs by sulforhodamine B assay relative to control; settings: read-out: Activity
MDA-MB-435 [15] = test: Cytotoxicity against human MDA-MB-435 cells assessed as cell growth at 1 uM after 48 hrs by sulforhodamine B assay relative to control; settings: MDA-MB-435, 48 h, read-out: Activity
OVCAR-5 [16] = test: Cytotoxicity against human OVCAR5 cells assessed as cell growth at 1 uM after 48 hrs by sulforhodamine B assay relative to control; settings: OVCAR-5, 48 h, read-out: Activity
OVCAR-8 = test: Cytotoxicity against human OVCAR8 cells assessed as cell growth at 1 uM after 48 hrs by sulforhodamine B assay relative to control; settings: OVCAR-8, 48 h, read-out: Activity
K562 = test: Cytotoxicity against human K562 cells assessed as cell growth at 10 uM after 48 hrs by sulforhodamine B assay relative to control; settings: K562, 48 h, read-out: Activity
HCC 2998 = test: Cytotoxicity against human HCC2998 cells assessed as cell growth at 10 uM after 48 hrs by sulforhodamine B assay relative to control; settings: HCC 2998, 48 h, read-out: Activity
SF-268 [17] = test: Cytotoxicity against human SF268 cells assessed as cell growth at 10 uM after 48 hrs by sulforhodamine B assay relative to control; settings: SF-268, 48 h, read-out: Activity
PC-3 = test: Cytotoxicity against human PC3 cells assessed as cell growth at 10 uM after 48 hrs by sulforhodamine B assay relative to control; settings: PC-3, 48 h, read-out: Activity
KM12 = test: Cytotoxicity against human KM12 cells assessed as cell growth at 100 uM after 48 hrs by sulforhodamine B assay relative to control; settings: KM12, 48 h, read-out: Activity
SNB-19 = test: Cytotoxicity against human SNB19 cells assessed as cell growth at 100 uM after 48 hrs by sulforhodamine B assay relative to control; settings: SNB-19, 48 h, read-out: Activity
SK-MEL-28 [18] = test: Cytotoxicity against human SK-MEL-28 cells assessed as cell growth at 100 uM after 48 hrs by sulforhodamine B assay relative to control; settings: SK-MEL-28, 48 h, read-out: Activity
LOX IMVI = test: Cytotoxicity against human LOXIMVI cells assessed as growth inhibition after 48 hrs by sulforhodamine B assay

COc1ccc(-c2cc(/C=C/C(=O)c3ccc(OC)c(OC)c3)[nH]n2)cc1
GI50 (MOLT-4 [1]): 2.67 µM | TGI (MOLT-4 [1]): 8 µM | CC50 (MOLT-4 [1]): > 100 µM | GI50 (HOP-62): 2.35 µM | LC50 (HOP-62): 35.3 µM | TGI (HOP-62): 6.17 µM | GI50 (SF-268 [2]): 1.94 µM | TGI (SF-268 [2]): 4.82 µM | CC50 (SF-268 [2]): 27.3 µM | GI50 (MDA-MB-435 [3]): 1.84 µM | LC50 (MDA-MB-435 [3]): 8.17 µM | TGI (MDA-MB-435 [3]): 3.88 µM | GI50 (SK-MEL-28 [4]): 1.65 µM | LC50 (SK-MEL-28 [4]): 5.74 µM | TGI (SK-MEL-28 [4]): 3.07 µM | GI50 (786-0 [5]): 1.6 µM | LC50 (786-0 [5]): 5.96 µM | TGI (786-0 [5]): 3.09 µM | GI50 (A498 [6]): 1.42 µM | LC50 (A498 [6]): 8.87 µM | TGI (A498 [6]): 3.55 µM | GI50 (DU-145): 1.4 µM | TGI (DU-145): 2.81 µM | CC50 (DU-145; read-out: LC50 (the source's name)): 5.64 µM | GI50 (T47D [7]): 1.6 µM | LC50 (T47D [7]): 24.9 µM | TGI (T47D [7]): 5.15 µM | growth at 0.01 µM (A498 [8]): 91% | growth at 0.01 µM (OVCAR-4): 88% | growth at 0.01 µM (M14): 101% | growth at 0.01 µM (NCI-H322M): 94% | growth at 0.01 µM (MOLT-4 [9]): 105% | growth at 0.1 µM (MOLT-4 [10]): 108% | growth at 0.1 µM (UACC-257): 86% | growth at 0.1 µM (OVCAR-5 [11]): 89% | growth at 0.1 µM (786-0 [12]): 102% | growth at 0.1 µM (RXF 393): 93% | growth at 0.1 µM (BT-549): 105% | growth at 0.1 µM (T47D [13]): 92% | growth at 0.1 µM (MDA-MB-468): 90% | growth at 1 µM (SF-268 [14]): 86% | growth at 1 µM (Malme-3M): 82% | growth at 1 µM (MDA-MB-435 [15]): 91% | growth at 1 µM (OVCAR-5 [16]): 77% | growth at 1 µM (OVCAR-8): 75% | growth at 10 µM (K562): 1% | growth at 10 µM (HCC 2998): -68% | growth at 10 µM (SF-268 [17]): -40% | growth at 10 µM (PC-3): -61% | growth at 100 µM (KM12): -79% | growth at 100 µM (SNB-19): -96% | growth at 100 µM (SK-MEL-28 [18]): -100%

COc1cc(-c2cc(/C=C/C(=O)c3ccc(Cl)c(Cl)c3)[nH]n2)cc(OC)c1OC
TGI (MOLT-4 [1]): 40.6 µM | CC50 (MOLT-4 [1]): > 100 µM | LC50 (HOP-62): 42.6 µM | TGI (HOP-62): 7.66 µM | TGI (SF-268 [2]): 63.3 µM | CC50 (SF-268 [2]): > 100 µM | LC50 (LOX IMVI): 78.4 µM | TGI (LOX IMVI): 16.4 µM | LC50 (MDA-MB-435 [3]): > 100 µM | TGI (MDA-MB-435 [3]): > 100 µM | LC50 (SK-MEL-28 [4]): > 100 µM | TGI (SK-MEL-28 [4]): 66 µM | LC50 (786-0 [5]): > 100 µM | TGI (786-0 [5]): 68 µM | LC50 (A498 [6]): > 100 µM | TGI (A498 [6]): 43 µM | LC50 (T47D [7]): > 100 µM | TGI (T47D [7]): 15.7 µM | growth at 0.01 µM (A498 [8]): 84% | growth at 0.01 µM (OVCAR-4): 92% | growth at 0.01 µM (M14): 98% | growth at 0.01 µM (NCI-H322M): 89% | growth at 0.01 µM (MOLT-4 [9]): 98% | growth at 0.1 µM (MOLT-4 [10]): 102% | growth at 0.1 µM (UACC-257): 96% | growth at 0.1 µM (OVCAR-5 [11]): 99% | growth at 0.1 µM (786-0 [12]): 94% | growth at 0.1 µM (RXF 393): 96% | growth at 0.1 µM (BT-549): 95% | growth at 0.1 µM (T47D [13]): 87% | growth at 0.1 µM (MDA-MB-468): 91% | growth at 1 µM (SF-268 [14]): 92% | growth at 1 µM (Malme-3M): 95% | growth at 1 µM (MDA-MB-435 [15]): 90% | growth at 1 µM (OVCAR-5 [16]): 92% | growth at 1 µM (OVCAR-8): 88% | growth at 10 µM (K562): 28% | growth at 10 µM (HCC 2998): 49% | growth at 10 µM (SF-268 [17]): 60% | growth at 10 µM (PC-3): 39% | growth at 100 µM (KM12): 3% | growth at 100 µM (SNB-19): 12% | growth at 100 µM (SK-MEL-28 [18]): -16%
